Patent US20030008358A1, “Method of producing L-serine by fermentation” (AJINOMOTO CO. INC, priority 1998, published 2003)

How the values were obtained:
[1] = system: Brevibacterium flavum AJ13325; assay: Growth of β-(2-thienyl)-DL-alanine resistant strains in the presence of β-(2-thienyl)-DL-alanine; assay type: cell-based; conditions: 0.25 g/L of β-(2-thienyl)-DL-alanine
Method: Similarly, the term “β-(2-thienyl)-DL-alanine resistance” refers to the property that a bacterium grows faster than the wild type in a medium containing β-(2-thienyl)-DL-alanine. For example, those strains that form colonies on a solid medium containing 0.25 g/L of β-(2-thienyl)-DL-alanine at 30° C. within 4 to 5 days are said to have β-(2-thienyl)-DL-alanine resistance.
To select B-(2-thienyl)-DL-alanine resistant strains from NG treated strains using Brevibacterium flavum AJ13377 as a parent strain, Brevibacterium flavum AJ13377 cells were NG treated and washed before their inoculation on a minimal medium for selection. The minimal medium for selection was a medium that contained 20 g of glucose, 1 g of ammonium sulfate, 1 g of potassium dihydrogen phosphate, 2.5 g of urea, 0.4 g of magnesium sulfate heptahydrate, 0.01 g of iron (II) sulfate heptahydrate, 0.01 g of manganese sulfate tetra- to pentahydrate, 50 μg of biotin, 200 μg of thiamin hydrochloride, 200 μg of nicotinic acid amide, and 250 mg of β-(2-thienyl)-DL-alanine per liter of distilled water. The NG treated mutant was incubated in the above-described medium at 30° C. for 5 to 10 days. The cell culture thus obtained was spread on a bouillon agar medium and incubated at 30° C. for 24 hours for colony formation. β-(2-Thienyl)-DL-alanine resistant strains were obtained from the strains that formed colonies. […]

[2] = system: 3-PGDH derived from AJ13324 strain; assay: Feedback inhibition of 3-PGDH from AJ13324 by L-serine; assay type: biochemical, Brevibacterium flavum; conditions: crude enzyme solution; FIG. 1
Method: (§1) The activity of 3-PGDH can be determined, for example, by the measurement of a decrease in coenzyme NADH2 in a reverse reaction (E. Sugimoto and L. I. Pizer, JBC, 243, 2081, 1968) or synthesis of coenzyme NADH2 in a forward reaction (Salach H. J. Method in Enzymology, vol.9, 216-220, 1966) by absorbance at 340 nm.
(§2) Brevibacterium flavum AJ13324, AJ13325 and AJ13327 were each incubated on a bouillon agar medium at 30° C. for 24 hours and a loopful of each microorganism was inoculated in a 500 ml shaking flask containing 50 ml of a fermentation medium having the composition shown in Table 2. As a control, the parent strains Brevibacterium flavum ATCC 14067 and AJ13377 were inoculated as a same manner as described above. The medium for inoculation was adjusted to pH 5.5 with sodium hydroxide and autoclaved at 115° C. for 15 minutes. […]
(§3) The enzyme activity of 3-PGDH was measured by the method of Salach H. J. et al. (Method in Enzymology, vol 9, 216-220 (1966)).
(§4) More specifically, 0.4 ml of 0.015 M NAD, 0.12 ml of 0.25 M EDTA (pH 9, NaOH), 0.1 ml of 0.05 M glutathione (pH 6, KOH), 0.5 ml of 1 M hydrazine (pH 9, acetate), 0.6 ml of 1 M Tris (pH 9, HCl), a suitable concentration of L-serine (0 to 40 mM), and water to make 2.3 ml, warmed to 25° C. in advance, were added. […] After stirring, the absorbance at 340 nm of the reaction mixture was measured for 30 seconds. […]

[3] = system: 3-PGDH derived from ATCC14067 strain (wild type); assay: Feedback inhibition of wild type 3-PGDH by L-serine; assay type: biochemical, Brevibacterium flavum; conditions: wild type coryneform bacterium 3-PGDH; 10 mM L-serine
Method: as §1, §2, §3, §4

[4] = system: 3-PGDH derived from AJ13377 strain; assay: Feedback inhibition of 3-PGDH from AJ13377 by L-serine; assay type: biochemical, Brevibacterium flavum; conditions: crude enzyme solution; compared with wild type strain ATCC 14067; FIG. 1
Method: as §1, §2, §3, §4

[5] = system: 3-PGDH derived from AJ13327 strain; assay: Feedback inhibition of 3-PGDH from AJ13327 by L-serine; assay type: biochemical, Brevibacterium flavum
Method: as §1
Brevibacterium flavum AJ13324, AJ13325 and AJ13327 were each incubated on a bouillon agar medium at 30° C. for 24 hours and a loopful of each microorganism was inoculated in a 500 ml shaking flask containing 50 ml of a fermentation medium having the composition shown in Table 2. As a control, the parent strains Brevibacterium flavum ATCC 14067 and AJ13377 were inoculated as a same manner as described above. The medium for inoculation was adjusted to pH 5.5 with sodium hydroxide and autoclaved at 115° C. for 15 minutes.
After collecting cells from the culture broth of each strain, the cells were washed twice with physiological saline and suspended in 50 mM sodium phosphate buffer (pH 7.0) containing 2 mM dithiothreitol. After ice cooling, the suspension was subjected to a sonicator to fragment the cells and the resulting liquid was ultracentrifuged. The ultracentrifugaton was run at 45,000 rpm for 1 hour to obtain a crude enzyme solution.
as §3
[…] Then, 0.2 ml of the crude enzyme solution was added and the temperature was kept the same for 5 minutes. Thereafter, 0.5 ml of 0.1 M 3-PGA (3-phosphoglycerate disodium salt, pH 7, NaOH) was added. After stirring, the absorbance at 340 nm of the reaction mixture was measured for 30 seconds. The reaction was carried out at 25° C.
For the measurement of activity, Hitachi U-2000A spectrophotometer was used.

[6] = system: Brevibacterium flavum AJ13324 and AJ13327; assay: Growth of azaserine resistant strains in the presence of azaserine; assay type: cell-based; conditions: 0.25 g/L of azaserine
Method: The term “azaserine resistance” refers to the property that a bacterium grows faster than the wild type in a medium containing azaserine. For example, those strains that form colonies on a solid medium containing 0.25 g/L of azaserine at 30° C. within 4 to 5 days are said to have azaserine resistance.
To select azaserine resistant strains from NG treated strains using Brevibacterium flavum AJ13377 as a parent strain, NG treated Brevibacterium flavum AJ13377 cells after washed were inoculated on a minimal medium for selection. The minimal medium for selection was a medium that contained 20 g of glucose, 1 g of ammonium sulfate, 1 g of potassium dihydrogen phosphate, 2.5 g of urea, 0.4 g of magnesium sulfate heptahydrate, 0.01 g of iron (II) sulfate heptahydrate, 0.01 g of manganese sulfate tetra- to pentahydrate, 50 μg of biotin, 200 μg of thiamin hydrochloride, 200 μg of nicotinic acid amide, and 250 mg of azaserine per liter of distilled water. The NG treated mutant was incubated in the above-described medium at 30° C. for 5 to 10 days. The cell culture thus obtained was spread on a bouillon agar medium and incubated at 30° C. for 24 hours for colony formation. Azaserine resistant strains were obtained from the strains that formed colonies. The mutants thus obtained included many strains that accumulated L-serine in considerable amounts at high yields. […]

In the case of `NC(Cc1cccs1)C(=O)O` (racemic) [β-(2-thienyl)-DL-alanine], the “growth in the presence of β-(2-thienyl)-DL-alanine” value [1] is reported as “able to grow”.
With `N[C@@H](CO)C(=O)O` [L-serine] the “L-serine sensitivity of 3-PGDH” value [2] was “more relieved of L-serine sensitivity”, the “3-PGDH activity in the presence of L-serine” value [3] was “almost completely inhibited” and the “L-serine sensitivity of 3-PGDH” value [4] was “relieved of L-serine sensitivity”. The “3-PGDH activity retained in the presence of L-serine (relative to absence of L-serine)” value ([5]; 80 mM L-serine) was roughly 100%, the “feedback inhibition of 3-PGDH by L-serine” value ([5]; 80 mM L-serine, FIG. 1) was “completely desensitized” and the “L-serine sensitivity of 3-PGDH” value ([5]; crude enzyme solution, FIG. 1) was “relieved of L-serine sensitivity greatly”.
In the case of `[N-]=[N+]=CC(=O)OC[C@H](N)C(=O)O` [azaserine], the “growth in the presence of azaserine” value [6] is reported as “able to grow”.
